# Laboratory results taken from paper PMC6242839 (Nature Communications, 2018).
# Read-outs that look alike come from different tables or passages of the source.
# Columns and labels:
# B. cereus ATCC 14579 [1] = test: microbe, parasite or virus in culture; type: cell-based, Bacillus cereus
# [2] = tested on: B. anthracis pathogenic strain (human isolate); test: microbe, parasite or virus in culture; type: cell-based; conditions: Bacillus anthracis, read-out: MIC B. anthracis Pathogenic
# B. cereus (ATCC 10876) = test: microbe, parasite or virus in culture; type: cell-based; conditions: Bacillus cereus, read-out: MIC B. cereus
# S. aureus ATCC 29213 = test: microbe, parasite or virus in culture; type: cell-based; conditions: Staphylococcus aureus, ATCC29213
# [3] = POPE LUVs, compound 50 µM; for leakage of encapsulated carboxyfluorescein: course of the experiment (14 h)
# [4] = tested on: B. cereus ATCC 14579 spores and vegetative cells; test: microbe, parasite or virus in culture; type: cell-based; conditions: Bacillus cereus
# E. coli K12 spheroplasts = test: microbe, parasite or virus in culture; type: cell-based, Escherichia coli
# B. cereus ATCC 14579 [5] = test: microbe, parasite or virus in culture; type: cell-based, Bacillus cereus; remark: listed apart in the source
# [6] = tested on: B. anthracis Sterne strain; test: microbe, parasite or virus in culture; type: cell-based; conditions: Bacillus anthracis, read-out: MIC B. anthracis Sterne
# [7] = tested on: B. cereus ATCC 14579 strains resistant to known antibiotics; test: microbe, parasite or virus in culture; type: cell-based, Bacillus cereus
# [8] = POPC LUVs, compound 50 µM
# E. coli K12 = test: microbe, parasite or virus in culture; type: cell-based; conditions: Escherichia coli
# in vitro = conditions: human
# [9] = tested on: S. aureus ATCC 29213 protoplasts; test: microbe, parasite or virus in culture; type: cell-based, Staphylococcus aureus
# B. cereus ATCC 14579 [10] = test: microbe, parasite or virus in culture; type: cell-based; conditions: Bacillus cereus, ATCC14579
# [11] = tested on: B. cereus ATCC 14579 protoplasts; test: microbe, parasite or virus in culture; type: cell-based; conditions: Bacillus cereus, ATCC14579
# [12] = tested on: B. subtilis 168 and knockout mutants; test: microbe, parasite or virus in culture; type: cell-based; conditions: Bacillus subtilis
# E. faecalis (ATCC 29212) = test: microbe, parasite or virus in culture; type: cell-based; conditions: Enterococcus faecalis, read-out: MIC E. faecalis
# [13] = tested on: B. anthracis ovine strain (animal isolate); test: microbe, parasite or virus in culture; type: cell-based; conditions: Bacillus anthracis, read-out: MIC B. anthracis Ovine
# [14] = tested on: B. cereus ATCC 14579 mutant library; type: cell-based, Bacillus cereus
# [15] = tested on: Bacillus cereus ATCC 14579; conditions: cited from earlier work
# [16] = B. subtilis 168, parental isogenic strain
compound,measurement,setting,value
CCCCCCCCCCCCO[C@H]1C[C@H](O)[C@@H](O)[C@H](C)O1 [Compound 1],MBC,B. cereus ATCC 14579 [1],32 µg/mL
same,MBC,"B. cereus ATCC 14579 [1]; Bacillus cereus, ATCC14579",16 µg/mL
same,MIC,"B. cereus ATCC 14579 [1]; Bacillus cereus, ATCC14579",16 µg/mL
same,MIC,[2]; 16 h,25 µM
same,MIC,"B. cereus (ATCC 10876); ATCC10876, 16 h",25 µM
same,MIC,S. aureus ATCC 29213,256 µg/mL
same,"time of leakage, τL",[3],about 160 min
same,leakage of encapsulated carboxyfluorescein,[3],~ 100%
same,MBC,"[4]; ATCC14579, 20 min",8 µg/mL
same,MBC,"[4]; ATCC14579, 0.5 h",8 µg/mL
same,MIC,E. coli K12 spheroplasts; Escherichia coli,0.004 mg/mL
same,1000-fold reduction (T99.9),B. cereus ATCC 14579 [5],≤ 60 min
same,MBC,B. cereus ATCC 14579 [5],32 µg/mL
same,MBC,"B. cereus ATCC 14579 [5]; Bacillus cereus, ATCC14579",16 µg/mL
same,MIC,[6]; 16 h,25 µM
same,MBC,"[7]; Bacillus cereus, ATCC14579",16 µg/mL
same,MIC,"[7]; Bacillus cereus, ATCC14579",16 µg/mL
same,Lmax value obtained from the fit,[8],< 50%
same,"time of leakage, τL",[8],about 692 min
same,total membrane leakage,[8]; course of the experiment (14 h),~ 30%
same,MIC,E. coli K12,256 µg/mL
same,IC50 at 24 h,in vitro,100 µM
same,IC50 at 48 h,in vitro,> 50 µM
same,MIC,"[9]; Staphylococcus aureus, ATCC29213",0.256 mg/mL
same,MIC,B. cereus ATCC 14579 [10],16 µg/mL
same,MIC,[11],16 µg/mL
same,MBC,[12]; [16],32 µg/mL
same,MIC,[12]; [16],16 µg/mL
same,MBC,[12]; B. subtilis ΔexpZ,32 µg/mL
same,MIC,[12]; B. subtilis ΔexpZ,16 µg/mL
same,MBC,[12]; B. subtilis ΔmtlA,32 µg/mL
same,MIC,[12]; B. subtilis ΔmtlA,16 µg/mL
same,MBC,[12]; B. subtilis ΔtreP,16 µg/mL
same,MIC,[12]; B. subtilis ΔtreP,16 µg/mL
same,MBC,[12]; B. subtilis ΔybbF,16 µg/mL
same,MIC,[12]; B. subtilis ΔybbF,16 µg/mL
same,MBC,[12]; B. subtilis ΔybdA,32 µg/mL
same,MIC,[12]; B. subtilis ΔybdA,16 µg/mL
same,MBC,[12]; B. subtilis ΔybdB,32 µg/mL
same,MIC,[12]; B. subtilis ΔybdB,16 µg/mL
same,MBC,[12]; B. subtilis ΔydhO,32 µg/mL
same,MIC,[12]; B. subtilis ΔydhO,16 µg/mL
same,MBC,[12]; B. subtilis ΔyfiB,32 µg/mL
same,MIC,[12]; B. subtilis ΔyfiB,32 µg/mL
same,MBC,[12]; B. subtilis ΔyfiC,16 µg/mL
same,MIC,[12]; B. subtilis ΔyfiC,16 µg/mL
same,MBC,[12]; B. subtilis ΔyfiM,16 µg/mL
same,MIC,[12]; B. subtilis ΔyfiM,16 µg/mL
same,MBC,[12]; B. subtilis ΔyfiN,32 µg/mL
same,MIC,[12]; B. subtilis ΔyfiN,16 µg/mL
same,MBC,[12]; B. subtilis ΔyflF,32 µg/mL
same,MIC,[12]; B. subtilis ΔyflF,16 µg/mL
same,MBC,[12]; B. subtilis ΔyfmR,16 µg/mL
same,MIC,[12]; B. subtilis ΔyfmR,16 µg/mL
same,MBC,[12]; B. subtilis ΔygaD,16 µg/mL
same,MIC,[12]; B. subtilis ΔygaD,16 µg/mL
same,MBC,[12]; B. subtilis ΔyhaQ,16 µg/mL
same,MIC,[12]; B. subtilis ΔyhaQ,16 µg/mL
same,MBC,[12]; B. subtilis ΔyhcJ,16 µg/mL
same,MIC,[12]; B. subtilis ΔyhcJ,16 µg/mL
same,MBC,[12]; B. subtilis ΔyheH,32 µg/mL
same,MIC,[12]; B. subtilis ΔyheH,16 µg/mL
same,MBC,[12]; B. subtilis ΔyjdD,16 µg/mL
same,MIC,[12]; B. subtilis ΔyjdD,16 µg/mL
same,MBC,[12]; B. subtilis ΔykfD,16 µg/mL
same,MIC,[12]; B. subtilis ΔykfD,16 µg/mL
same,MBC,[12]; B. subtilis ΔyknU,32 µg/mL
same,MIC,[12]; B. subtilis ΔyknU,16 µg/mL
same,MBC,[12]; B. subtilis ΔykoD,16 µg/mL
same,MIC,[12]; B. subtilis ΔykoD,16 µg/mL
same,MBC,[12]; B. subtilis ΔykpA,32 µg/mL
same,MIC,[12]; B. subtilis ΔykpA,16 µg/mL
same,MBC,[12]; B. subtilis ΔyvcC,32 µg/mL
same,MIC,[12]; B. subtilis ΔyvcC,16 µg/mL
same,MBC,[12]; B. subtilis ΔywbA,32 µg/mL
same,MIC,[12]; B. subtilis ΔywbA,16 µg/mL
same,MBC,[12]; B. subtilis ΔywhQ,32 µg/mL
same,MIC,[12]; B. subtilis ΔywhQ,16 µg/mL
same,MBC,[12]; B. subtilis ΔyxdM,32 µg/mL
same,MIC,[12]; B. subtilis ΔyxdM,16 µg/mL
same,MBC,[12]; B. subtilis ΔyybL,32 µg/mL
same,MIC,[12]; B. subtilis ΔyybL,16 µg/mL
same,MIC,"E. faecalis (ATCC 29212); ATCC29212, 16 h",50 µM
same,MIC,[13]; 16 h,25 µM
same,MIC of mutant library compared with the parental strain,[14],MIC values remain unchanged
CCCCCCCCCCCCO[C@@H]1C[C@@H](O)[C@H](O)[C@@H](CO)O1 [Compound 13],MBC,"B. cereus ATCC 14579 [1]; Bacillus cereus, ATCC14579",128 µg/mL
same,MIC,"B. cereus ATCC 14579 [1]; Bacillus cereus, ATCC14579",128 µg/mL
same,MIC,[2]; 16 h at 37 °C,12 µM
same,MIC,"B. cereus (ATCC 10876); ATCC10876, 16 h at 37 °C",386 µM
same,"time of leakage, τL",[3],about 326 min
same,leakage of encapsulated carboxyfluorescein,[3],~ 10%
same,MIC,[6]; 16 h at 37 °C,386 µM
same,"time of leakage, τL",[8],~256 min
same,IC50 at 24 h,in vitro,100 µM
same,IC50 at 48 h,in vitro,> 50 µM
same,MIC,"E. faecalis (ATCC 29212); ATCC29212, 16 h at 37 °C",12 µM
same,MIC,[13]; 16 h at 37 °C,12 µM
CN[C@H](CC(C)C)C(=O)N[C@H]1C(=O)N[C@@H](CC(N)=O)C(=O)N[C@H]2C(=O)N[C@H]3C(=O)N[C@H](C(=O)N[C@H](C(=O)O)c4cc(O)cc(O)c4-c4cc3ccc4O)[C@H](O)c3ccc(c(Cl)c3)Oc3cc2cc(c3O[C@@H]2O[C@H](CO)[C@@H](O)[C@H](O)[C@H]2O[C@H]2C[C@](C)(N)[C@H](O)[C@H](C)O2)Oc2ccc(cc2Cl)[C@H]1O [Vancomycin],MIC of the antibiotic,[7],5 µg/mL
same,MIC,[15],0.18 µg/mL
Polymyxin B [reference compound],MIC,E. coli K12 spheroplasts,> 1000 mg/mL
same,MIC,[9],> 1000 mg/mL
same,MIC,[15],781 µg/mL
